Results published in ChEMBL document CHEMBL1155991, “Discovery of isoxazole voltage gated sodium channel blockers for treatment of chronic pain” (Bioorg Med Chem Lett, 2009).

Assays:
[1] = target: hERG (KCNH2) (Homo sapiens, UniProt Q12809); assay: (§1) Displacement of [35S]MK-0499 from human ERG expressed in HEK293 cells at 10 uM […]; format: cell-based; conditions: HEK293 cells expressing human ERG, probe [35S]MK-0499
[2] = target: T1, Sodium channel protein type 9 subunit alpha (Homo sapiens, UniProt Q15858); assay: Inhibition of human Nav1.7 channel expressed in HEK293 cells by FRET assay; format: cell-based
Target sequence in this assay (Q15858 whole entry): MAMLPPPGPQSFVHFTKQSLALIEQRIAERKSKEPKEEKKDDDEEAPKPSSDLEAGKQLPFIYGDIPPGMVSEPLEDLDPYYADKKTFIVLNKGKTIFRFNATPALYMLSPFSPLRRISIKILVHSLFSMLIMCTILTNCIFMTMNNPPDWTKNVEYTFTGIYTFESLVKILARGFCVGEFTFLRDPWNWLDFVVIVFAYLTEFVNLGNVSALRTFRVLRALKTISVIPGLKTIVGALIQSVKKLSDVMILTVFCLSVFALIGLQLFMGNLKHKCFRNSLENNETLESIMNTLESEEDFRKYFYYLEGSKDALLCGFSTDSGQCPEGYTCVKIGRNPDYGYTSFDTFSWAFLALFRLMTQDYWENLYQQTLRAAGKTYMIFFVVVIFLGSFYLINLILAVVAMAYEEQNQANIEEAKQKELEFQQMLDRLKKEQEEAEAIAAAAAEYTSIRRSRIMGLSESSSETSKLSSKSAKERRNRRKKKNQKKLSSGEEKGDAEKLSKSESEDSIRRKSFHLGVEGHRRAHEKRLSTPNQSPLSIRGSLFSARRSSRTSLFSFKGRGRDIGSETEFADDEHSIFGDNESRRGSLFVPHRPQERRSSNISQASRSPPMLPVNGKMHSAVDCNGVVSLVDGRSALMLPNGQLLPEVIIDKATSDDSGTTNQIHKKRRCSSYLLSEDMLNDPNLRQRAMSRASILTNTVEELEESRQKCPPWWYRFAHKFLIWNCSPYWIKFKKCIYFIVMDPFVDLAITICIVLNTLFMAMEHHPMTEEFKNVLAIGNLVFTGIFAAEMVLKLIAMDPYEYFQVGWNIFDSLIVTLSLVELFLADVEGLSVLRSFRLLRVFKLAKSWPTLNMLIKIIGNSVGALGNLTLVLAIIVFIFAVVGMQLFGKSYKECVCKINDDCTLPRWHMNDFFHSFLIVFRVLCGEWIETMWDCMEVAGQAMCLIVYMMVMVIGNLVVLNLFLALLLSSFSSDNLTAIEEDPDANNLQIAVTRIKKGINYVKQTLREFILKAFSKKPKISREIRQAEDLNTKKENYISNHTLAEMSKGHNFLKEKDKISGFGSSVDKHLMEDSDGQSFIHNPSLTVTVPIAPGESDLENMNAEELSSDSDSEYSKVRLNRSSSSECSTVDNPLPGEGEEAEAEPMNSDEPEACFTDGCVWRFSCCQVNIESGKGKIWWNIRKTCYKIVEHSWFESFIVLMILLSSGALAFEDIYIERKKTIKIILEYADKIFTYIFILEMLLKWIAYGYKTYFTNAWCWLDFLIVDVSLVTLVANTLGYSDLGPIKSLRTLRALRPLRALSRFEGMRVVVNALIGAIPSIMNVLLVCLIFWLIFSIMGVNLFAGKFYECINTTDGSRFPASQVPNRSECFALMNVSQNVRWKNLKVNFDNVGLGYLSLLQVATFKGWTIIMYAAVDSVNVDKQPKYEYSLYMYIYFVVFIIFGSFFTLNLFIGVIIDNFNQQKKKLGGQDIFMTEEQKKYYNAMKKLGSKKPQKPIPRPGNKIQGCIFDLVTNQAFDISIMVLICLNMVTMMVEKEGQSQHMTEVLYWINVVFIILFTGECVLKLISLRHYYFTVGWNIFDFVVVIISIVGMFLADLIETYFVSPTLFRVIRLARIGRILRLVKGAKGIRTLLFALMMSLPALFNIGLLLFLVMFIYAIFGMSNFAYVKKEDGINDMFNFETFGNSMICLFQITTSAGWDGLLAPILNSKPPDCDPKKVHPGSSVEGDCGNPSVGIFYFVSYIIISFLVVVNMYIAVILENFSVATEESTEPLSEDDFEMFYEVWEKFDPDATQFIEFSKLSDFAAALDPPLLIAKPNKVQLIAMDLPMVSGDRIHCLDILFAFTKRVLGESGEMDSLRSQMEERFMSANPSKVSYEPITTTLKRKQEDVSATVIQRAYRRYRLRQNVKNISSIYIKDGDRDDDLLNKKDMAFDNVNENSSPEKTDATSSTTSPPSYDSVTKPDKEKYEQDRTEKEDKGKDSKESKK

[3] = system: Rattus norvegicus; assay: Analgesic activity in SNL rat neuropathic pain model assessed as reversal of allodynia at 10 mg/kg, po after 2 hrs; format: functional
[4] = system: Rattus norvegicus; assay: Analgesic activity in SNL rat neuropathic pain model assessed as reversal of allodynia at 10 mg/kg, po after 4 hrs; format: functional
[5] = system: Rattus norvegicus; assay: Analgesic activity in SNL rat neuropathic pain model assessed as reversal of allodynia at 10 mg/kg, po after 3 hrs; format: functional
[6] = target: T1, Sodium channel protein type 9 subunit alpha; assay: Inhibition of human Nav1.7 channel expressed in HEK293 cells at 1 uM by FRET assay; format: cell-based
Target sequence in this assay (Q15858 whole entry, looked up): as the sequence (Q15858 whole entry) above

[7] = target: Voltage-gated inwardly rectifying potassium channel KCNH2 (Homo sapiens, UniProt Q12809); assay: as §1; format: cell-based; conditions: hek293, 10 µM, 10 µM
Chain of Voltage-gated inwardly rectifying potassium channel KCNH2 (Q12809 whole entry): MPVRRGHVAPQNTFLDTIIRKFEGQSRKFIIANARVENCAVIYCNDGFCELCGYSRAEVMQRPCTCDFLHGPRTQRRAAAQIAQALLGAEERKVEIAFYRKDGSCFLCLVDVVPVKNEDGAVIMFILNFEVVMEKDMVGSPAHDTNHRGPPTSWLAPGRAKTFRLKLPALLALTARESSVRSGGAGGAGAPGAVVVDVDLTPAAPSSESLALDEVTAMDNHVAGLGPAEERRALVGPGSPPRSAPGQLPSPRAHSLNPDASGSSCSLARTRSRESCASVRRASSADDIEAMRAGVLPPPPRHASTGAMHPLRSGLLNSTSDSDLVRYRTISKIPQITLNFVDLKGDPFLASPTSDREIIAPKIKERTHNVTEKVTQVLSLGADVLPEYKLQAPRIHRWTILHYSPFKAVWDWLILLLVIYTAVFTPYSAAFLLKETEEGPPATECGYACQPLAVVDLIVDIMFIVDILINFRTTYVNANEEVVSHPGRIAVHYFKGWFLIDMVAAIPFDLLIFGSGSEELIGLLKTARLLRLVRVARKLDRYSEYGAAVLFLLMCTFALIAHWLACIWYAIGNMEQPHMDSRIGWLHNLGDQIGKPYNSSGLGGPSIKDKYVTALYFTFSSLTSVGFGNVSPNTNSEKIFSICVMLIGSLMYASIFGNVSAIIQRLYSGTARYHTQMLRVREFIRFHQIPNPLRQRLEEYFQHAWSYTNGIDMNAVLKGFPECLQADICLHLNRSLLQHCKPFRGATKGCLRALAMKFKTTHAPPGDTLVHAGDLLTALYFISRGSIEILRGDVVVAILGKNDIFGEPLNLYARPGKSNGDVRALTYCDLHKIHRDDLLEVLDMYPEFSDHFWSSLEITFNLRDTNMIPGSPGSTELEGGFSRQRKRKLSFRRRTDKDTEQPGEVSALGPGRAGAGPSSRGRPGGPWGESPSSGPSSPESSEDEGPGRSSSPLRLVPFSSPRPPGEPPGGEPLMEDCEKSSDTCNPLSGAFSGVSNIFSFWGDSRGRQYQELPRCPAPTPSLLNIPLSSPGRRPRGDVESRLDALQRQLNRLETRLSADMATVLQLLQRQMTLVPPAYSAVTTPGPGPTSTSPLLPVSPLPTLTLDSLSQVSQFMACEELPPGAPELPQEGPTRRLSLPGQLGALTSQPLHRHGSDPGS

[8] = Plasma clearance in Sprague-Dawley rat at 1 mg/kg, iv or 3 mg/kg, po; format: ADME, organism-based
[9] = Oral bioavailability in Sprague-Dawley rat at 3 mg/kg; format: ADME, organism-based; conditions: in vivo
[10] = Half life in Sprague-Dawley rat at 1 mg/kg, iv or 3 mg/kg, po; format: ADME, organism-based; conditions: in vivo

Chain of hERG (KCNH2) (Q12809 whole entry): as above

SMILES	inhibition at 10 µM [1] [%]	IC50 [2] [nM]	other results
O=C(NC1(c2ccccc2)CCC1)[C@@H]1CCC[C@H]1c1cc(-c2ccc(C(F)(F)F)cc2O)on1	72	300	
CN(Cc1ccc(-c2ccccc2S(N)(=O)=O)cc1)C(=O)[C@@H]1CCC[C@H]1C(=O)NCc1ccc(OC(F)(F)F)cc1			Activity [3]: 30%; Activity [4]: 28%; Activity [5]: 35%
O=C(NC1(c2ccc(F)cc2)CCC1)[C@@H]1CCC[C@H]1c1cc(-c2ccccc2)on1	81	84	
O=C(NC1(c2ccccc2)CCC1)[C@@H]1CCC[C@H]1c1cc(-c2cccc(C(F)(F)F)c2O)on1 (stereo in doubt; 30a)		430	
COc1cccc(-c2cc([C@@H]3CCC[C@H]3C(=O)NC3(c4ccccc4)CCC3)no2)c1	62	20	
COc1ccc(-c2cc([C@@H]3CCC[C@H]3C(=O)NC3(c4ccccc4)CCC3)no2)cc1	44	180	
O=C(NC1(c2ccccc2)CCC1)[C@@H]1CCC[C@H]1c1cc(-c2ccccc2C(F)(F)F)on1	91	740	
O=C(NC1(c2ccccc2)CC(F)(F)C1)[C@@H]1CCC[C@H]1c1cc(-c2ccccc2)on1	27		inhibition [6]: 41%
O=C(NC1(c2ccccc2)CC(F)C1)[C@@H]1CCC[C@H]1c1cc(-c2ccccc2)on1 (stereo in doubt; 17)	46	180	
O=C(NC1(c2ccccc2)CCC1)[C@@H]1CCC[C@H]1c1cc(-c2c(O)cccc2C(F)(F)F)on1			inhibition [6]: 1%
O=C(NC1(c2ccccc2)CCC1)[C@@H]1CCC[C@H]1c1cc(-c2ccccc2Cl)on1	76	180	
CC(C)(NC(=O)[C@@H]1CCC[C@H]1c1cc(-c2ccccc2)on1)c1ccccc1	45	430	
O=C(NC1(c2ccccc2)CCC1)[C@@H]1CCC[C@H]1c1cc(-c2cc(C(F)(F)F)ccc2O)on1			inhibition [6]: 1%
O=C(NCc1ccccc1)[C@@H]1CCC[C@H]1c1cc(-c2ccccc2)on1	35		inhibition [6]: 37%
COC1CC(NC(=O)[C@@H]2CCC[C@H]2c2cc(-c3ccccc3)on2)(c2ccccc2)C1 (some centres undefined)	51	380	
CC(NC(=O)[C@@H]1CCC[C@H]1c1cc(-c2ccccc2)on1)c1ccccc1 (some centres undefined)	47	1700	
O=C(NC1(c2ccccc2)CCCC1)[C@@H]1CCC[C@H]1c1cc(-c2ccccc2)on1	85	220	
O=C(NC1(c2ccccc2)CC(F)C1)[C@@H]1CCC[C@H]1c1cc(-c2ccccc2)on1 (stereo in doubt; 18)		160	inhibition (INH) [7]: 59%
O=C(NC1(c2ccccc2)CC(O)C1)[C@@H]1CCC[C@H]1c1cc(-c2ccccc2)on1 (some centres undefined)		> 5000	

SMILES	inhibition at 10 µM [1] [%]	IC50 [2] [nM]	other results
O=C(NC1(c2ccccc2)CCC1)[C@@H]1CCC[C@H]1c1cc(-c2cccc(O)c2)on1	64	210	
O=C(NC1(c2ccccc2F)CCC1)[C@@H]1CCC[C@H]1c1cc(-c2ccccc2)on1	40	450	
O=C(NC1(c2cccc(F)c2)CCC1)[C@@H]1CCC[C@H]1c1cc(-c2ccccc2)on1	64	110	
O=C(NC1(c2ccccc2)CCC1)[C@@H]1CCC[C@H]1c1cc(-c2cccc(C(F)(F)F)c2O)on1 (stereo in doubt; 30)	45	340	
O=C(NC1(c2ccccc2)CCC1)[C@@H]1CCC[C@H]1c1cc(-c2ccccc2)on1	37	120	
O=C(NC1(c2ccccc2)CCC1)[C@@H]1CCC[C@H]1c1cc(-c2ccc(O)cc2)on1	15	130	
O=C(NC1(c2ccccc2)CCC1)[C@@H]1CCC[C@H]1c1cc(-c2cccc(C(F)(F)F)c2O)on1 (stereo in doubt; 30b)		> 10000	
COc1cccc(-c2cc([C@@H]3CCC[C@H]3C(=O)NC3(c4ccccc4)CCC3)no2)n1	54	190	
CC1(c2ccccc2)CC([C@@H]2CCC[C@H]2C(=O)NC2(c3ccccc3)CCC2)=NO1 (some centres undefined)			inhibition [6]: 8%
O=C(NC1(c2ccccc2)CCC1)[C@@H]1CCC[C@H]1c1cc(-c2cccc(OC(F)(F)F)c2O)on1	47	260	
O=C(NC1(c2ccccc2)CCC1)[C@@H]1CCC[C@H]1c1cc(-c2cccc(=O)[nH]2)on1			inhibition [6]: 0%
O=C(NC1(c2ccccc2)CC1)[C@@H]1CCC[C@H]1c1cc(-c2ccccc2)on1	47	440	
COc1ccccc1-c1cc([C@@H]2CCC[C@H]2C(=O)NC2(c3ccccc3)CCC2)no1	54	390	
O=C(NC1(c2ccccc2)CCC1)[C@@H]1CCC[C@H]1c1cc(-c2cccc(C(F)(F)F)n2)on1	22	220	clearance [8]: 135 mL/min/kg; bioavailability [9]: 36%; half-life [10]: 1.51 h
O=C(NC1(c2ccccc2)CCC1)[C@@H]1CCC[C@H]1c1cc(-c2ccc(O)c(C(F)(F)F)c2)on1			inhibition [6]: 0%
O=C(NC1(c2cccc(C(F)(F)F)c2)CCC1)[C@@H]1CCC[C@H]1c1cc(-c2ccccc2)on1	89	590	
O=C(NC1(c2ccccc2)CCC1)[C@@H]1CCC[C@H]1c1cc(-c2cccc(OC(F)(F)F)c2)on1	55	370	clearance [8]: 89 mL/min/kg; bioavailability [9]: 46%; half-life [10]: 2.6 h
O=C(NC1(c2ccccc2)CCCCC1)[C@@H]1CCC[C@H]1c1cc(-c2ccccc2)on1		580	
O=C(NC1(c2ccccc2)CCC1)[C@@H]1CCC[C@H]1c1cc(-c2ccccc2O)on1	54		inhibition [6]: 44%
